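Assay format: 96-well plates, 48-hour exposure. GI50 is the concentration that inhibits growth by half. At the TGI there is no net growth.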
Columns and labels:
Test in all cases: NCI-60 cell line screen, 48 h
[1] = test system: 786-0 renal
[2] = test system: A498 renal
[3] = test system: A549 NSCLC
[4] = test system: ACHN renal
[5] = test system: BT-549 breast
[6] = test system: CAKI-1 renal
[7] = test system: CCRF-CEM leukemia
[8] = test system: COLO 205 colon
[9] = test system: DU-145 prostate
[10] = test system: EKVX NSCLC
[11] = test system: HCC-2998 colon
[12] = test system: HCT-116 colon
[13] = test system: HCT-15 colon
[14] = test system: HL-60(TB) leukemia
[15] = test system: HOP-62 NSCLC
[16] = test system: HOP-92 NSCLC
[17] = test system: HS 578T breast
[18] = test system: HT29 colon
[19] = test system: IGROV1 ovarian
[20] = test system: K-562 leukemia
[21] = test system: KM12 colon
[22] = test system: LOX IMVI melanoma
[23] = test system: M14 melanoma
[24] = test system: MALME-3M melanoma
[25] = test system: MCF7 breast
[26] = test system: MDA-MB-231 breast
[27] = test system: MDA-MB-435
[28] = test system: MDA-MB-468 breast
[29] = test system: MOLT-4 leukemia
[30] = test system: NCI-H226 lung
[31] = test system: NCI-H23 lung
[32] = test system: NCI-H460 lung
[33] = test system: NCI-H522 lung
[34] = test system: OVCAR-3 ovarian
[35] = test system: OVCAR-4 ovarian
[36] = test system: OVCAR-5 ovarian
[37] = test system: OVCAR-8 ovarian
[38] = test system: PC-3 prostate
[39] = test system: RPMI-8226 leukemia
[40] = test system: RXF 393 renal
[41] = test system: SF-268 CNS
[42] = test system: SF-295 CNS
[43] = test system: SF-539 CNS
[44] = test system: SK-MEL-2 melanoma
[45] = test system: SK-MEL-28 melanoma
[46] = test system: SK-MEL-5 melanoma
[47] = test system: SK-OV-3 ovarian
[48] = test system: SN12C renal
[49] = test system: SNB-19 CNS
[50] = test system: SNB-75 CNS
[51] = test system: SR leukemia
[52] = test system: SW-620 colon
[53] = test system: T-47D breast
[54] = test system: TK-10 renal
[55] = test system: U251 CNS
[56] = test system: UACC-257 melanoma
[57] = test system: UACC-62 melanoma
[58] = test system: UO-31 renal

O=C1Nc2ccc(Cl)cc2/C1=C/c1ccc(OCc2ccc(Br)cc2F)cc1
GI50 [1]: 3.06 µM
TGI [1]: 8.32 µM
GI50 [2]: 2.45 µM
TGI [2]: 5.42 µM
GI50 [3]: 3.25 µM
TGI [3]: 11.3 µM
GI50 [4]: 2.19 µM
TGI [4]: 5.29 µM
GI50 [5]: 9.48 µM
TGI [5]: 26.8 µM
GI50 [6]: 2.05 µM
TGI [6]: 7.06 µM
GI50 [7]: 4.55 µM
TGI [7]: 17.7 µM
GI50 [8]: 9.18 µM
TGI [8]: 37.5 µM
GI50 [9]: 10.2 µM
TGI [9]: 26.6 µM
GI50 [10]: 4.51 µM
TGI [10]: 22.1 µM
GI50 [11]: 20.5 µM
TGI [11]: 65.7 µM
GI50 [12]: 3.13 µM
TGI [12]: 10.7 µM
GI50 [13]: 5.77 µM
TGI [13]: 21 µM
GI50 [14]: 10.9 µM
TGI [14]: 26.1 µM
GI50 [15]: 3.14 µM
TGI [15]: 11.7 µM
GI50 [16]: 2.12 µM
TGI [16]: 6.91 µM
GI50 [17]: 2.37 µM
TGI [17]: 6.69 µM
GI50 [18]: 12.9 µM
TGI [18]: 29.1 µM
GI50 [19]: 4.11 µM
TGI [19]: 15.5 µM
GI50 [20]: 3.87 µM
TGI [20]: 15.3 µM
GI50 [21]: 8.56 µM
TGI [21]: 25.7 µM
GI50 [22]: 2.88 µM
TGI [22]: 10 µM
GI50 [23]: 4.97 µM
TGI [23]: 18.6 µM
GI50 [24]: 2.76 µM
TGI [24]: 9.8 µM
GI50 [25]: 2.95 µM
TGI [25]: 14.2 µM
GI50 [26]: 3.21 µM
TGI [26]: 12.2 µM
GI50 [27]: 9.81 µM
TGI [27]: 22.2 µM
GI50 [28]: 8.46 µM
TGI [28]: 21.9 µM
GI50 [29]: 4.63 µM
TGI [29]: 19.2 µM
GI50 [30]: 2.66 µM
TGI [30]: 11.5 µM
GI50 [31]: 2.98 µM
TGI [31]: 12.2 µM
GI50 [32]: 2.1 µM
TGI [32]: 4.38 µM
GI50 [33]: 3.31 µM
TGI [33]: 11.1 µM
GI50 [34]: 3.28 µM
TGI [34]: 10.1 µM
GI50 [35]: 2.06 µM
TGI [35]: 4.67 µM
GI50 [36]: 13 µM
TGI [36]: 42.9 µM
GI50 [37]: 3.74 µM
TGI [37]: 15.1 µM
GI50 [38]: 3.79 µM
TGI [38]: 16.6 µM
GI50 [39]: 9.01 µM
TGI [39]: 24 µM
GI50 [40]: 4.73 µM
TGI [40]: 18.1 µM
GI50 [41]: 5.01 µM
TGI [41]: 17.7 µM
GI50 [42]: 3.24 µM
TGI [42]: 12.1 µM
GI50 [43]: 6.32 µM
TGI [43]: 19.1 µM
GI50 [44]: 15.5 µM
TGI [44]: 30.1 µM
GI50 [45]: 5.42 µM
TGI [45]: 17.4 µM
GI50 [46]: 10.8 µM
TGI [46]: 23.1 µM
GI50 [47]: 4.2 µM
TGI [47]: 17.9 µM
GI50 [48]: 4.62 µM
TGI [48]: 18.7 µM
GI50 [49]: 4.06 µM
TGI [49]: 15.7 µM
GI50 [50]: 2 µM
TGI [50]: 7.32 µM
GI50 [51]: 2.72 µM
TGI [51]: 9.16 µM
GI50 [52]: 2.8 µM
TGI [52]: 10.3 µM
GI50 [53]: 10.9 µM
TGI [53]: 30.8 µM
GI50 [54]: 6.75 µM
TGI [54]: 22.9 µM
GI50 [55]: 2.03 µM
TGI [55]: 4.07 µM
GI50 [56]: 13 µM
TGI [56]: 27.6 µM
GI50 [57]: 3.72 µM
TGI [57]: 15.4 µM
GI50 [58]: 1.46 µM
TGI [58]: 6.65 µM

Reference: PubChem BioAssay (NCI)
